Data published in US9776990B2, “Isoindolone derivatives” (AbbVie Inc., priority 2012, dated 2017).

Assays:
NCI-H929 = assay: Proliferation panel assay, NCI-H929; assay type: cell-based; details: Homo sapiens, 120 h; Multiple Myeloma, NCI-H929, 5 days; read-out: Cellular Proliferation EC50
Protocol: (§1) The impact of compounds of the Examples on cancer cell proliferation was determined using the breast cancer cell line MX-1 (ATCC) in a 3-day proliferation assay. MX-1 cells were maintained in RPMI supplemented with 10% FBS at 37 C.° and an atmosphere of 5% CO2. For compound testing, MX-1 cells were plated in 96-well black bottom plates at a density of 5000 cells/well in 90 μl of culture media and incubated at 37° overnight to allow cell adhesion and spreading. Compound dilution series were prepared in DMSO via a 3-fold serial dilution from 3 mM to 0.1 μM. […]
(§2) Luminescence readings from the Cell Titer Glo assay were normalized to the DMSO treated cells and analyzed using the GraphPad Prism software with sigmoidal curve fitting to obtain EC50s. The minimum significant ratio (MSR) was determined to evaluate assay reproducibility (Eastwood et al., (2006) J Biomol Screen, 11: 253-261). The overall MSR was determined to be 2.1 and a moving MSR (last six run MSR overtime) has been <2.
(§3) The compound of Example 40 was tested for its impact on proliferation of a panel of cancer cell line types (with specific cell lines tested) as set out in (Table 2). […] Cell proliferation data were analyzed as described above in the MX-1 proliferation assay to obtain the EC50 for the compounds reported in Table 2.

HPAC = assay: Proliferation panel assay, HPAC; assay type: cell-based; details: Homo sapiens, 120 h, Pancreas, 5 days, read-out: Cellular Proliferation EC50
Protocol: as §1, §2, §3

BxPC3FP5 = assay: Proliferation panel assay, BxPC3FP5; assay type: cell-based; details: 120 h; Pancreas, BxPC3FP5, 5 days; read-out: Cellular Proliferation EC50
Protocol: as §1, §2, §3

H1299 = assay: Proliferation panel assay, H1299; assay type: cell-based; details: Homo sapiens, NCI-H1299, 120 h; NSCLC, H1299, 5 days; read-out: Cellular Proliferation EC50
Protocol: as §1, §2, §3

[1] = system: breast cancer cell line MX-1; assay: MX-1 cell line proliferation assay (3-day, Cell Titer Glo); assay type: cell-based, human; details: Homo sapiens, MX1, MX-1 cells, 72 hours, read-out: Cellular proliferation: EC50
H460 = assay: Proliferation panel assay, H460; assay type: cell-based; details: Homo sapiens, NCI-H460, 120 h; NSCLC, H460, 5 days; read-out: Cellular Proliferation EC50
Protocol: as §1, §2, §3

GEO = assay: Proliferation panel assay, GEO; assay type: cell-based; details: 120 h, Colon, 5 days, read-out: Cellular Proliferation EC50
Protocol: as §1, §2, §3

[2] = system: LPS induced IL-6 production; assay: LPS (lipopolysaccharide) induced IL-6 production mouse assay; assay type: in vivo; details: mice, one hour before LPS, serum 2 hours after LPS
Protocol: Compounds of the Examples listed in Table 8 were assayed for their ability to inhibit LPS (lipopolysaccharide) induced IL-6 production in mice. Severe combined immunodeficient female mice (8 per group) received an intraperitoneal challenge of lipopolysaccharide (2.5 mg/kg, L2630 E. coli 0111:B4) one hour after oral administration (PO) or intraperitoneal administration (IP) of compounds in a solution of 2% ethanol, 5% Tween-80, 20% PEG-400 and 73% (0.2% hydroxypropylmethylcellulose in water). Mice were euthanized 2 hours after lipopolysaccharide injection, blood was removed by cardiac puncture, and then the serum harvested from the blood samples was frozen at −80° C. On the day of the assay the serum samples were brought to room temperature and then diluted 1:20 in phosphate-buffered saline containing 2% bovine serum albumin. Interleukin-6 measurements were performed using a cytokine assay from Meso Scale Discovery (Gaithersburg, Md.) for mouse serum analysis according to the manufacturer's protocol and read on a SECTOR Imager 6000 (Meso Scale Discovery, Gaithersburg, Md.) instrument. Statistical analysis was performed using Prism software (version 5.0) incorporating Dunnett's one way ANOVA. The IL-6 mean and standard deviation of the group of vehicle treated animals were compared with the IL-6 mean and standard deviation of the group treated with drug. A p value <0.05 means that there is less than a 5% probability that the mean values in the two groups are equal.

Ly18 = assay: Proliferation panel assay, Ly18; assay type: cell-based; details: 120 h; NHL, Ly18, 5 days; read-out: Cellular Proliferation EC50
Protocol: as §1, §2, §3

MDAMB453 = assay: Proliferation panel assay, MDAMB453; assay type: cell-based; details: Homo sapiens, MDA-MB-453, 120 h; Breast, MDAMB453, 5 days; read-out: Cellular Proliferation EC50
Protocol: as §1, §2, §3

H1975 = assay: Proliferation panel assay, H1975; assay type: cell-based; details: Homo sapiens, NCI-H1975, 120 h; NSCLC, H1975, 5 days; read-out: Cellular Proliferation EC50
Protocol: as §1, §2, §3

RPMI-8226 = assay: Proliferation panel assay, RPMI-8226; assay type: cell-based; details: Homo sapiens, 120 h; Multiple Myeloma, RPMI-8226, 5 days; read-out: Cellular Proliferation EC50
Protocol: as §1, §2, §3

A-375 = assay: Proliferation panel assay, A-375; assay type: cell-based; details: Homo sapiens, 120 h; Melanoma, A-375, 5 days; read-out: Cellular Proliferation EC50
Protocol: as §1, §2, §3

**Q.** Which results are given for Cc1[nH]c(-c2cc(NS(C)(=O)=O)ccc2Oc2ccccc2)c2c1C(=O)CCC2 [Example 40, N-[3-(3-methyl-4-oxo-4,5,6,7-tetrahydro-2H-isoindol-1-yl)-4-phenoxyphenyl]methanesulfonamide]?
**A.** EC50 (NCI-H929): 0.041 µM; EC50 (HPAC): 0.29 µM; EC50 (BxPC3FP5): 0.07 µM; EC50 (H1299): 0.36 µM; EC50 [1]: 0.16 µM; EC50 (H460): > 10 µM; EC50 (GEO): 0.38 µM; % inhibition of LPS induced IL-6 production ([2]; 3 mg/kg (PO)): 28.7 at 3 mg/kg (PO) %; % inhibition of LPS induced IL-6 production ([2]; 10 mg/kg (PO)): 52.4 at 10 mg/kg (PO) %; % inhibition of LPS induced IL-6 production ([2]; 30 mg/kg (PO)): 72.7 at 30 mg/kg (PO) %; % inhibition of LPS induced IL-6 production ([2]; 50 mg/kg (IP)): 84.7 at 50 mg/kg (IP) %; EC50 (Ly18): 0.37 µM; EC50 (MDAMB453): 0.22 µM; EC50 (H1975): 0.18 µM; EC50 (RPMI-8226): 0.094 µM; EC50 (A-375): 0.168 µM
